PMC10485887, “PET Evaluation of the Novel F-18 Labeled Reversible Radioligand [^18F]GEH200449 for Detection of Monoamine Oxidase-B in the Non-Human Primate Brain” (ACS Chemical Neuroscience, 2023)
Where two headings read alike, the source gives them in different places.

System: MAO-B
Assay type: in vivo, Macaca fascicularis
Conditions: for 2-TC parameter estimate k2 / 2-TC parameter estimate k3 / 2-TC parameter estimate k4 / 2-TC parameter estimate K1 / 2-TC parameter estimate VT / VT, 2-TC mean / VT, Logan mean: baseline
Experimental: At start of PET data acquisition, a sterile physiological phosphate buffer solution (pH = 7.4) of [^18F]GEH200449 (injected radioactivity, 107–167 MBq) was injected as a bolus into a sural vein. Emission data were acquired in list mode for 123 min. Arterial blood was sampled as previously described[28] using an automated blood sampling system (ABSS) during the first 3 min of each PET measurement. Subsequently, arterial blood samples (0.7–2.5 mL) were manually drawn at 7, 15, 30, 60, 90, and 120 min after injection of [^18F]GEH200449. After centrifugation, 0.15–1.0 mL of plasma was pipetted and plasma radioactivity was measured in a well counter. In addition, samples were taken directly from the ABSS at 0.5, 1, 1.5, 2, 2.5, and 3 min for cross-calibration with the well counter and for the determination of the plasma-to-blood ratio.
Dynamic images were reconstructed as previously described.[30],[31] Regions of interest (ROIs) for the whole brain and selected regions (caudate nucleus, putamen, thalamus, occipital cortex, prefrontal cortex, and cerebellum) were manually delineated on T1-weighted magnetic resonance images (MRIs) acquired as previously described.[21],[27] PET images were coregistered to the MRIs, and time-activity curves were generated by pooling ROIs for each paired anatomical region and applying the pooled ROIs to the coregistered PET images. Delineation of ROIs and image coregistrations were performed using the software PMOD v. 3.6 (PMOD Technologies, Zurich, Switzerland).
Time curves for regional [^18F]GEH200449 binding at baseline were analyzed by kinetic modeling using 1-TC and 2-TC models,[32] and VT as outcome measures. Akaike information criterion[33] and F statistics were applied to select the preferred model. Regional estimates of VT for [^18F]GEH200449 were also obtained using the Logan linear graphical method[34] with t* fixed at 40 min. The analyses were performed using the kinetic modeling tool in PMOD v. 4.3. Occupancy at [^18F]GEH200449 binding sites was estimated based on regional VT values obtained by the Logan method at baseline and after drug administration according to a graphical procedure described in the literature.[22]

`O=c1ccoc2ccc(OCc3ccc([18F])nc3)cc12` [[^18F]GEH200449] was tested, and the “2-TC parameter estimate k2” value (NHP #4, CER) was 0.03 min⁻¹, the “2-TC parameter estimate k3” value (NHP #4, CER) was 0.001 min⁻¹ and the “2-TC parameter estimate k4” value (NHP #4, CER) was 0.000 min⁻¹. The “2-TC parameter estimate K1” value (NHP #4, OC) was 0.31 mL min-1 cm-3, the “2-TC parameter estimate k2” value (NHP #4, OC) was 0.03 min⁻¹ and the “2-TC parameter estimate k3” value (NHP #4, OC) was 0.001 min⁻¹. The “2-TC parameter estimate k4” value (NHP #4, OC) was 0.000 min⁻¹, the “2-TC parameter estimate K1” value (NHP #4, PFC) was 0.37 mL min-1 cm-3 and the “2-TC parameter estimate VT” value (NHP #4, PFC) was 13.9 mL cm-3. For the same compound, the “2-TC parameter estimate k2” value (NHP #4, PFC) was 0.03 min⁻¹, the “2-TC parameter estimate k3” value (NHP #4, PFC) was 0.002 min⁻¹ and the “2-TC parameter estimate k4” value (NHP #4, PFC) was 0.013 min⁻¹. For the same compound, the “2-TC parameter estimate K1” value (NHP #4, PUT) was 0.57 mL min-1 cm-3, the “2-TC parameter estimate VT” value (NHP #4, PUT) was 17.2 mL cm-3 and the “2-TC parameter estimate k2” value (NHP #4, PUT) was 0.04 min⁻¹. The “2-TC parameter estimate k3” value (NHP #4, PUT) was 0.006 min⁻¹, the “2-TC parameter estimate k4” value (NHP #4, PUT) was 0.034 min⁻¹ and the “2-TC parameter estimate K1” value (NHP #4, THA) was 0.53 mL min-1 cm-3. For the same compound, the “2-TC parameter estimate VT” value (NHP #4, THA) was 18.1 mL cm-3, the “2-TC parameter estimate k2” value (NHP #4, THA) was 1.24 min⁻¹ and the “2-TC parameter estimate k3” value (NHP #4, THA) was 4.043 min⁻¹. The “2-TC parameter estimate k4” value (NHP #4, THA) was 0.098 min⁻¹, the “2-TC parameter estimate K1” value (NHP #4, WB) was 0.34 mL min-1 cm-3 and the “2-TC parameter estimate VT” value (NHP #4, WB) was 13.1 mL cm-3. The “2-TC parameter estimate k2” value (NHP #4, WB) was 0.03 min⁻¹, the “2-TC parameter estimate k3” value (NHP #4, WB) was 0.003 min⁻¹ and the “2-TC parameter estimate k4” value (NHP #4, WB) was 0.016 min⁻¹. The “2-TC parameter estimate K1” value (NHP #5, CAU) was 0.93 mL min-1 cm-3, the “2-TC parameter estimate VT” value (NHP #5, CAU) was 34.1 mL cm-3 and the “2-TC parameter estimate k2” value (NHP #5, CAU) was 0.05 min⁻¹. For the same compound, the “2-TC parameter estimate k3” value (NHP #5, CAU) was 0.004 min⁻¹, the “2-TC parameter estimate k4” value (NHP #5, CAU) was 0.004 min⁻¹ and the “2-TC parameter estimate K1” value (NHP #5, CER) was 0.51 mL min-1 cm-3. For the same compound, the “2-TC parameter estimate VT” value (NHP #5, CER) was 16.0 mL cm-3, the “2-TC parameter estimate k2” value (NHP #5, CER) was 0.05 min⁻¹ and the “2-TC parameter estimate k3” value (NHP #5, CER) was 0.006 min⁻¹. The “2-TC parameter estimate k4” value (NHP #5, CER) was 0.011 min⁻¹, the “2-TC parameter estimate K1” value (NHP #5, OC) was 0.37 mL min-1 cm-3 and the “2-TC parameter estimate k2” value (NHP #5, OC) was 0.04 min⁻¹. For the same compound, the “2-TC parameter estimate k3” value (NHP #5, OC) was 0.002 min⁻¹, the “2-TC parameter estimate k4” value (NHP #5, OC) was 0.000 min⁻¹ and the “2-TC parameter estimate K1” value (NHP #5, PFC) was 0.61 mL min-1 cm-3. For the same compound, the “2-TC parameter estimate VT” value (NHP #5, PFC) was 20.4 mL cm-3, the “2-TC parameter estimate k2” value (NHP #5, PFC) was 0.05 min⁻¹ and the “2-TC parameter estimate k3” value (NHP #5, PFC) was 0.004 min⁻¹. The “2-TC parameter estimate k4” value (NHP #5, PFC) was 0.006 min⁻¹, the “2-TC parameter estimate K1” value (NHP #5, PUT) was 0.86 mL min-1 cm-3 and the “2-TC parameter estimate VT” value (NHP #5, PUT) was 21.1 mL cm-3. For the same compound, the “2-TC parameter estimate k2” value (NHP #5, PUT) was 0.06 min⁻¹, the “2-TC parameter estimate k3” value (NHP #5, PUT) was 0.007 min⁻¹ and the “2-TC parameter estimate k4” value (NHP #5, PUT) was 0.012 min⁻¹. For the same compound, the “2-TC parameter estimate K1” value (NHP #5, THA) was 0.64 mL min-1 cm-3, the “2-TC parameter estimate VT” value (NHP #5, THA) was 27.7 mL cm-3 and the “2-TC parameter estimate k2” value (NHP #5, THA) was 0.04 min⁻¹. The “2-TC parameter estimate k3” value (NHP #5, THA) was 0.004 min⁻¹, the “2-TC parameter estimate k4” value (NHP #5, THA) was 0.005 min⁻¹ and the “2-TC parameter estimate K1” value (NHP #5, WB) was 0.50 mL min-1 cm-3. The “2-TC parameter estimate VT” value (NHP #5, WB) was 17.3 mL cm-3, the “2-TC parameter estimate k2” value (NHP #5, WB) was 0.05 min⁻¹ and the “2-TC parameter estimate k3” value (NHP #5, WB) was 0.005 min⁻¹. The “2-TC parameter estimate k4” value (NHP #5, WB) was 0.008 min⁻¹, the “pattern of regional radioactivity (binding)” value (baseline PET images and time curves) was “high binding in the striatum and thalamus, whereas the binding was lower in the cortex and cerebellum” and the “VT, 2-TC mean” value (caudate nucleus, n = 4) was 22.0 mL cm^–3. The “VT, Logan mean” value (caudate nucleus, n = 4) was 18.9 mL cm^–3, the “VT, 2-TC mean” value (cerebellum, n = 3) was 13.6^** mL cm^–3 and the “VT, Logan mean” value (cerebellum, n = 4) was 12.6 mL cm^–3. For the same compound, the “VT, 2-TC mean” value (occipital cortex, n = 2) was 11.0^* mL cm^–3, the “VT, Logan mean” value (occipital cortex, n = 4) was 11.0 mL cm^–3 and the “VT, 2-TC mean” value (prefrontal cortex, n = 4) was 14.7 mL cm^–3. For the same compound, the “VT, Logan mean” value (prefrontal cortex, n = 4) was 13.1 mL cm^–3, the “VT, 2-TC mean” value (putamen, n = 4) was 17.3 mL cm^–3 and the “VT, Logan mean” value (putamen, n = 4) was 16.5 mL cm^–3. For the same compound, the “VT, 2-TC mean” value (thalamus, n = 4) was 19.8 mL cm^–3, the “VT, Logan mean” value (thalamus, n = 4) was 17.3 mL cm^–3 and the “VT, 2-TC mean” value (whole brain, n = 4) was 13.5 mL cm^–3. For the same compound, the “VT, Logan mean” value (whole brain, n = 4) was 12.4 mL cm^–3.
